pKi: −log10 of the molar value.
Target: BACE (Homo sapiens, UniProt P56817)
Experiment: Ki Determination for the Inhibition of BACE (FS-1 peptide fluorescence cleavage assay)
Format: biochemical
Conditions: apparent Ki; 50 nM BACE, 10 μM FS-1 substrate, 0.1M sodium acetate pH 4.5
Experimental: Compounds were tested against BACE activity using the following modifications of the method described in J. Ermolieff et al. (2000) Biochemistry 39(51):16263.
All compound evaluations were performed in 0.1M sodium acetate (buffer), pH, 4.5, 10 μM substrate (FS-1 peptide as described in the reference above; this is commercially available), varying concentrations of the test compound or control (DMSO to yeild 2% vol/vol), and 50 nM BACE. The assay volume is 100 μL.
Two microliters of the test compound dissolved in DMSO are added to each well in a 96-well microtiter plate. Seventy eight microliters of BACE are mixed with buffer and added to each well then incubated at room temperature for 15 minutes. A stock solution of 50 μM FS-1 substrate was prepared by addition of an aliquot of FS-1 substrate which was dissolved in DMSO to the buffer and mixed well. The reaction is initiated by addition of 20 μL of the FS-1 mix to the remaining, preincubated assay components. The cleavage reaction of substrate to product is measured using a Molecular Devices fluorescence plate reader with the excitation and emission filter pairs of 355 nm and 495 nm, respectively. Apparent Ki values are determined by fitting the data to the integrated equation for competitive tight binding inhibition.

Chain of BACE (P56817 46-501): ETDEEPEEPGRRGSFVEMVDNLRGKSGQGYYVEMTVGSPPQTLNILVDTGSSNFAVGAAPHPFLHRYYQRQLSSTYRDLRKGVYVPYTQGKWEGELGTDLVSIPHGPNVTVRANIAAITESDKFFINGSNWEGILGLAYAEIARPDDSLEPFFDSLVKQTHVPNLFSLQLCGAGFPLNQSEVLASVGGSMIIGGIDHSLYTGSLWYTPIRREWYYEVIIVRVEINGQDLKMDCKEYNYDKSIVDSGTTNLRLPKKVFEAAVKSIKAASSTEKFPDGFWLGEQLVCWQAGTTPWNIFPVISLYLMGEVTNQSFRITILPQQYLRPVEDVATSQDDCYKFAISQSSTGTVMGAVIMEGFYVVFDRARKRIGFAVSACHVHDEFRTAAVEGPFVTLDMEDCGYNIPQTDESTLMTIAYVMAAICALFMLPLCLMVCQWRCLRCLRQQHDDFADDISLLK

Row | pKi | Structure (SMILES)
1 | > 5.52 | O=C(Nc1ccc(-c2ccc(C(F)(F)F)cc2)cc1N1CCNCC1)c1cccc2ccccc12 [Compound 174, Naphthalene-1-carboxylic acid (3-piperazin-1-yl-4′-trifluoromethyl-biphenyl-4-yl)-amide]
2 | > 5.52 | O=C(Nc1cc(F)c(-c2ccc(Cl)c(Cl)c2)cc1N1CCNCC1)c1cccc2ccccc12 [Compound 175, Naphthalene-1-carboxylic acid (3′,4′-dichloro-2-fluoro-5-piperazin-1-yl-biphenyl-4-yl)-amide]
3 | > 5.52 | O=C(Nc1cc(Br)cc(COc2ccccc2C(F)(F)F)c1N1CCNCC1)c1nccc2ccccc12 [Compound 176, Isoquinoline-1-carboxylic acid [5-bromo-2-piperazin-1-yl-3-(2-trifluoromethyl-phenoxymethyl)-phenyl]-amide]
4 | > 5.52 | O=C(Nc1cc(-c2ccccc2)cc(COc2ccccc2C(F)(F)F)c1N1CCNCC1)c1nccc2ccccc12 [Compound 177, Isoquinoline-1-carboxylic acid [4-piperazin-1-yl-5-(2-trifluoromethyl-phenoxymethyl)-biphenyl-3-yl]-amide]
5 | > 5.52 | O=C(Nc1ccc(COc2ccccc2C(F)(F)F)cc1N1CCNCC1)c1nccc2ccccc12 [Compound 178, Isoquinoline-1-carboxylic acid [2-piperazin-1-yl-4-(2-trifluoromethyl-phenoxymethyl)-phenyl]-amide]
6 | 4.52 to 5.52 | O=S(=O)(Nc1cc(-c2ccc(Cl)c(Cl)c2)ccc1N1CCNCC1)c1ccc(-c2ccc(C(F)(F)F)cc2)cc1 [Compound 179, 4′-Trifluoromethyl-biphenyl-4-sulfonic acid (3′,4′-dichloro-4-piperazin-1-yl-biphenyl-3-yl)-amide]
7 | 4.52 to 5.52 | O=S(=O)(Nc1cc(-c2ccc(Cl)c(Cl)c2)ccc1N1CCNCC1)c1ccc(-c2cccc(Cl)c2)cc1 [Compound 180, 3′-Chloro-biphenyl-4-sulfonic acid (3′,4′-dichloro-4-piperazin-1-yl-biphenyl-3-yl)-amide]
8 | 4.52 to 5.52 | O=S(=O)(Nc1cc(-c2ccc(Cl)c(Cl)c2)ccc1N1CCNCC1)c1ccc(-c2ccc(Cl)cc2)cc1 [Compound 181, 4′-Chloro-biphenyl-4-sulfonic acid (3′,4′-dichloro-4-piperazin-1-yl-biphenyl-3-yl)-amide]
9 | > 5.52 | O=C(Nc1cc(Br)c(COc2ccccc2C(F)(F)F)cc1N1CCNCC1)c1nccc2ccccc12 [Compound 183, Isoquinoline-1-carboxylic acid [5-bromo-2-piperazin-1-yl-4-(2-trifluoromethyl-phenoxymethyl)-phenyl]-amide]
10 | > 5.52 | O=C(Nc1cc(-c2ccccc2)c(COc2ccccc2C(F)(F)F)cc1N1CCNCC1)c1nccc2ccccc12 [Compound 184, Isoquinoline-1-carboxylic acid [4-piperazin-1-yl-6-(2-trifluoromethyl-phenoxymethyl)-biphenyl-3-yl]-amide]
11 | 4.52 to 5.52 | O=C(Nc1cc(-c2ccc(C(F)(F)F)cc2)c(COc2ccccc2C(F)(F)F)cc1N1CCNCC1)c1nccc2ccccc12 [Compound 185, Isoquinoline-1-carboxylic acid [4-piperazin-1-yl-4′-trifluoromethyl-6-(2-trifluoromethyl-phenoxymethyl)-biphenyl-3-yl]-amide]
12 | > 5.52 | O=C(Nc1cc(-c2ccc(O)cc2)c(COc2ccccc2C(F)(F)F)cc1N1CCNCC1)c1nccc2ccccc12 [Compound 186, Isoquinoline-1-carboxylic acid [4′-hydroxy-4-piperazin-1-yl-6-(2-trifluoromethyl-phenoxymethyl)-biphenyl-3-yl]-amide]
13 | > 5.52 | O=C(Nc1cc(-c2ccoc2)c(COc2ccccc2C(F)(F)F)cc1N1CCNCC1)c1nccc2ccccc12 [Compound 187, Isoquinoline-1-carboxylic acid [5-furan-3-yl-2-piperazin-1-yl-4-(2-trifluoromethyl-phenoxymethyl)-phenyl]-amide]
14 | 4.52 to 5.52 | CCOC(=O)c1cc(Br)cc(NCc2ccc3ccccc3n2)c1N1CCNCC1 [Compound 188, 5-Bromo-2-piperazin-1-yl-3-[(quinolin-2-ylmethyl)-amino]-benzoic acid ethyl ester]
15 | 4.52 to 5.52 | O=C(Nc1cc(C(F)(F)F)ccc1N1CCNCC1)c1cnc2ccccc2n1 [Compound 189, Quinoxaline-2-carboxylic acid (2-piperazin-1-yl-5-trifluoromethyl-phenyl)-amide]
16 | 4.52 to 5.52 | O=C(Nc1cc(C(F)(F)F)ccc1N1CCNCC1)c1ccc2cnccc2n1 [Compound 190, [1,6]Naphthyridine-2-carboxylic acid (2-piperazin-1-yl-5-trifluoromethyl-phenyl)-amide]
17 | 4.52 to 5.52 | O=C(O)C1CN(c2ccc(-c3ccc(C(F)(F)F)cc3)cc2NCc2ccc3ccccc3c2)CCN1 (centres unmarked) [Compound 191, 4-{3-[(Naphthalen-2-ylmethyl)-amino]-4′-trifluoromethyl-biphenyl-4-yl}-piperazine-2-carboxylic acid]
18 | > 5.52 | COC(=O)C1CN(c2ccc(-c3ccc(C(F)(F)F)cc3)cc2NCc2ccc3ccccc3c2)CCN1 (centres unmarked) [Compound 192, 4-{3-[(Naphthalen-2-ylmethyl)-amino]-4′-trifluoromethyl-biphenyl-4-yl}-piperazine-2-carboxylic acid methyl ester]
19 | > 5.52 | CC(C)NC(=O)C1CN(c2ccc(-c3ccc(C(F)(F)F)cc3)cc2NCc2ccc3ccccc3c2)CCN1 (centres unmarked) [Compound 193, 4-{3-[(Naphthalen-2-ylmethyl)-amino]-4′-trifluoromethyl-biphenyl-4-yl}-piperazine-2-carboxylic acid isopropylamide]
20 | > 5.52 | O=C(NCc1ccccc1)C1CN(c2ccc(-c3ccc(C(F)(F)F)cc3)cc2NCc2ccc3ccccc3c2)CCN1 (centres unmarked) [Compound 194, 4-{3-[(Naphthalen-2-ylmethyl)-amino]-4′-trifluoromethyl-biphenyl-4-yl}-piperazine-2-carboxylic acid benzylamide]
21 | > 5.52 | CN(C)C(=O)C1CN(c2ccc(-c3ccc(C(F)(F)F)cc3)cc2NCc2ccc3ccccc3c2)CCN1 (centres unmarked) [Compound 195, 4-{3-[(Naphthalen-2-ylmethyl)-amino]-4′-trifluoromethyl-biphenyl-4-yl}-piperazine-2-carboxylic acid dimethylamide]
22 | < 4.52 | Cc1cc(Cl)ccc1OCCCC(=O)N1CCNCC1C(=O)Nc1ccc2ccccc2c1 (centres unmarked) [Compound 200, 1-[4-(4-Chloro-2-methyl-phenoxy)-butyryl]-piperazine-2-carboxylic acid naphthalen-2-ylamide]
23 | < 4.52 | O=C(Nc1cc(C(F)(F)F)ccc1N1CCCNCC1)c1cccc2ccccc12 [Compound 201, Naphthalene-1-carboxylic acid (2-[1,4]diazepan-1-yl-5-trifluoromethyl-phenyl)-amide]
24 | < 4.52 | O=C(Nc1ccc2ccccc2c1)C1CNCCc2c1[nH]c1ccccc21 (centres unmarked) [Compound 202, 1,2,3,4,5,6-Hexahydro-azepino[4,5-b]indole-5-carboxylic acid naphthalen-2-ylamide]
25 | < 4.52 | O=C(NCc1ccco1)C1CNCCC1c1ccc(COc2ccccc2C(F)(F)F)cc1 (centres unmarked) [Compound 203, 4-[4-(2-Trifluoromethyl-phenoxymethyl)-phenyl]-piperidine-3-carboxylic acid (furan-2-ylmethyl)-amide]
26 | < 4.52 | O=C(Nc1ccccc1)C1CNCCC1c1ccc(COc2ccccc2C(F)(F)F)cc1 (centres unmarked) [Compound 204]

Reference: patent publication US20030095958A1, “Inhibitors of bace” (priority 2001, published 2003)
